{"source": "paper PMC12959773", "about": "(Protein & Cell, 2025)", "key": {"SLC7A13-SLC3A1 complex [1]": {"target": "T1, SLC7A13-SLC3A1 complex (Homo sapiens, UniProt Q8TCU3, K309A)", "T1 construct": "heterodimeric light/heavy chain transporter, dimer of heterodimers; ectopically expressed in HEK293T / HEK293 cells (Expi293 for cryo-EM); with Amino acid transporter heavy chain SLC3A1", "T1 sequence (Q8TCU3 1-470 K309A)": "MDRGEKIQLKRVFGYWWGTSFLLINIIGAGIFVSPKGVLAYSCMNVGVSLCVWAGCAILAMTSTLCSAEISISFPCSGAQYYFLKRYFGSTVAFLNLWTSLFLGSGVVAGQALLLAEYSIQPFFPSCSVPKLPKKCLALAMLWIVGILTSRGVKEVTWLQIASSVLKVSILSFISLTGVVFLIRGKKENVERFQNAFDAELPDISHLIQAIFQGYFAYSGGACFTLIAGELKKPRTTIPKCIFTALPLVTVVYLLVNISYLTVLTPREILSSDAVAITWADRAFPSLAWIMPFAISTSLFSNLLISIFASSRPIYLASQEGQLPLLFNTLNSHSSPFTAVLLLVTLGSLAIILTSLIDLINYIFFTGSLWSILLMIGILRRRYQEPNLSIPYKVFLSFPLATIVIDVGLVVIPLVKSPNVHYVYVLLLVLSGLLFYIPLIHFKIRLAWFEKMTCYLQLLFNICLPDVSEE", "T1 sequence (Q07837 1-685 partner)": "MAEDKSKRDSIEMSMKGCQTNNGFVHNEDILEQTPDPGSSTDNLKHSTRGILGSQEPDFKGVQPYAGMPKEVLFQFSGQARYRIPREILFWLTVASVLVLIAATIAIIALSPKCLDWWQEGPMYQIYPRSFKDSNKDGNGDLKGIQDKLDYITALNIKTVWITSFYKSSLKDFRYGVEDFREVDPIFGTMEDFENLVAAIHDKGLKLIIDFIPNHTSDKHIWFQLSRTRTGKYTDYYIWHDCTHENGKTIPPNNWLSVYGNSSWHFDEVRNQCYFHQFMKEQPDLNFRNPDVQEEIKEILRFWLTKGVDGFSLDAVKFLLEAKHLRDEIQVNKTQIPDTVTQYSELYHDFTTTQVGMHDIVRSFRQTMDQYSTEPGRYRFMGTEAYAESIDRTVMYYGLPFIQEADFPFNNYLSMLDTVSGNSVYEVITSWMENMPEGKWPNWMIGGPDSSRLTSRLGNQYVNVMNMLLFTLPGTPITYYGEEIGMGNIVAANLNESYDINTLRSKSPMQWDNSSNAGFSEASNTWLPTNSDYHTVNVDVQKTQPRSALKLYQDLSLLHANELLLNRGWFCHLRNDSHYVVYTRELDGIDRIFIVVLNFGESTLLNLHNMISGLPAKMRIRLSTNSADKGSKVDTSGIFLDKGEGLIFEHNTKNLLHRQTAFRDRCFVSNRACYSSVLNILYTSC", "assay": "[2H]-cystine uptake, isotope tracking", "type": "cell-based", "settings": "HEK293 cells transfected with SLC7A13 and SLC3A1; labelled compound"}, "SLC7A11-SLC3A2 complex": {"target": "T2, SLC7A11-SLC3A2 complex (Homo sapiens, UniProt Q9UPY5)", "T2 construct": "system xc-, heterodimeric light/heavy chain transporter; ectopically expressed in HEK293T cells; with Amino acid transporter heavy chain SLC3A2", "T2 sequence (Q9UPY5 1-501)": "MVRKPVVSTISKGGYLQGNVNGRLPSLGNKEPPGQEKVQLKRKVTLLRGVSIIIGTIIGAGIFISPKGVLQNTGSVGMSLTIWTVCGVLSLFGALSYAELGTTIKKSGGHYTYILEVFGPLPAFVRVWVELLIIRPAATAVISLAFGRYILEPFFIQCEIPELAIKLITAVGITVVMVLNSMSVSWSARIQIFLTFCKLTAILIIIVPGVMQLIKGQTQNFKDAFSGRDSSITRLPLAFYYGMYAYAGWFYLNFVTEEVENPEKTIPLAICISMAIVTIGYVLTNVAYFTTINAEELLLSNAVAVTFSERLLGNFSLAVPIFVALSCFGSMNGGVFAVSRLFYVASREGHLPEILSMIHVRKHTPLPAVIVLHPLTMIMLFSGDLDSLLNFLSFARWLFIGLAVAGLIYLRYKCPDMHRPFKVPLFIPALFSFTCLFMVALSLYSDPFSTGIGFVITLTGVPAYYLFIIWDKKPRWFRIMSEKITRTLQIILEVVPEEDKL", "T2 sequence (P08195 2-529 partner)": "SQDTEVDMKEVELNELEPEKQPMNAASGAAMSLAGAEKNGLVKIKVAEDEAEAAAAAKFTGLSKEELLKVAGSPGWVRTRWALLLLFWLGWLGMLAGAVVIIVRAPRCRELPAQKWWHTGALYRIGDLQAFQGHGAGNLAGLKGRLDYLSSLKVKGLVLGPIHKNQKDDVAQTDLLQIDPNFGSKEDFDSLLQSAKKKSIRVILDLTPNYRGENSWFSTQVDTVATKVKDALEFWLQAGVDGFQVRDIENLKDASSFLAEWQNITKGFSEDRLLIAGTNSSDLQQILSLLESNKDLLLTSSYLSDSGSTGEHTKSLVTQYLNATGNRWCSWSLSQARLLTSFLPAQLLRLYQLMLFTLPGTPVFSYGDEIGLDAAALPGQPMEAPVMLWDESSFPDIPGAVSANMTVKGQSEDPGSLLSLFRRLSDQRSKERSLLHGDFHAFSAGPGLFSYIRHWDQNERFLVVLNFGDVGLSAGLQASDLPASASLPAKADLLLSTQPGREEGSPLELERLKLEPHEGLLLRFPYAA", "assay": "microscale thermophoresis", "settings": "read-out: binding affinity"}, "SLC7A13-SLC3A1 complex [2]": {"target": "T3, SLC7A13-SLC3A1 complex (Homo sapiens, UniProt Q8TCU3, S306A)", "T3 construct": "heterodimeric light/heavy chain transporter, dimer of heterodimers; ectopically expressed in HEK293T / HEK293 cells (Expi293 for cryo-EM); with Amino acid transporter heavy chain SLC3A1", "T3 sequence (Q8TCU3 1-470 S306A)": "T1 sequence (Q8TCU3 1-470 K309A) with S306A, A309K", "T3 sequence (Q07837 1-685 partner)": "T1 sequence (Q07837 1-685 partner)", "assay": "[2H]-cystine uptake, isotope tracking", "type": "cell-based", "settings": "HEK293 cells transfected with SLC7A13 and SLC3A1; labelled compound"}}, "note": "Positions count from the first letter of the chain named.", "data": [{"smiles": "N[C@@H](CSSC[C@H](N)C(=O)O)C(=O)O", "note": "[cystine]", "values": [{"measurement": "cystine uptake", "setting": "SLC7A13-SLC3A1 complex [1]", "result": "mutation in any of the seven SLC7A13-specific residues to alanine significantly reduced SLC7A13’s transporter activities"}, {"measurement": "Kd", "setting": "SLC7A11-SLC3A2 complex", "result": "15.6 ± 7.04", "unit": "µM"}, {"measurement": "cystine uptake", "setting": "SLC7A13-SLC3A1 complex [2]", "result": "mutation in any of the seven SLC7A13-specific residues to alanine significantly reduced SLC7A13’s transporter activities"}]}]}
